Results: PubChem BioAssay (NCI)
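In this assay, cells in 96-well plates receive the compound at five concentrations for 48 hours. Endpoints are linearly interpolated between the surrounding concentrations. GI50: concentration for 50% inhibition of growth. TGI: total growth inhibition.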

Columns and labels:
Assay in all cases: growth of human tumour cells (NCI), 48 h
TK-10 renal = tested on: TK-10 renal
786-0 renal = tested on: 786-0 renal
SK-MEL-28 melanoma = tested on: SK-MEL-28 melanoma
LOX IMVI melanoma = tested on: LOX IMVI melanoma
CCRF-CEM leukemia = tested on: CCRF-CEM leukemia
HCT-116 colon = tested on: HCT-116 colon
HL-60(TB) leukemia = tested on: HL-60(TB) leukemia
MCF7 breast = tested on: MCF7 breast
NCI-H23 lung = tested on: NCI-H23 lung
MALME-3M melanoma = tested on: MALME-3M melanoma

| SMILES | TGI (TK-10 renal) [µM] | TGI (786-0 renal) [µM] | TGI (SK-MEL-28 melanoma) [µM] | TGI (LOX IMVI melanoma) [µM] | TGI (CCRF-CEM leukemia) [µM] | TGI (HCT-116 colon) [µM] | TGI (HL-60(TB) leukemia) [µM] | TGI (MCF7 breast) [µM] | TGI (NCI-H23 lung) [µM] | TGI (MALME-3M melanoma) [µM] | GI50 (TK-10 renal) [µM] | GI50 (786-0 renal) [µM] | GI50 (SK-MEL-28 melanoma) [µM] | GI50 (LOX IMVI melanoma) [µM] | GI50 (CCRF-CEM leukemia) [µM] | GI50 (HCT-116 colon) [µM] | GI50 (HL-60(TB) leukemia) [µM] | GI50 (MCF7 breast) [µM] | GI50 (NCI-H23 lung) [µM] | GI50 (MALME-3M melanoma) [µM] |
| --- | --- | --- | --- | --- | --- | --- | --- | --- | --- | --- | --- | --- | --- | --- | --- | --- | --- | --- | --- | --- |
| Cc1ccc(C(=O)N2CCN(C(=O)c3ccc(C)cc3)c3ccccc32)cc1 | > 100 | 43.2 | > 100 | > 100 | > 100 | > 62.6 | 4.21 | > 100 | > 100 | > 100 | – | – | – | – | – | – | – | – | – | – |
| CCCCOC(=O)c1ccc(NC(=O)CCl)cc1 | 3.85 | 3.74 | 13.6 | 2.35 | 6.07 | 2.86 | 4.86 | 10 | 7.47 | 3.68 | 1.91 | 2.04 | 3.87 | 1.03 | 0.789 | 1.29 | 2.28 | 2.35 | 2.4 | 1.76 |
| CC(=O)C1COC(O)C1C (centres undefined) | > 100 | 49.8 | 38.6 | 39.4 | > 100 | 39.6 | 39.7 | 67.3 | 31.7 | – | – | – | – | – | – | – | – | – | – | – |
| Nc1nc2ccc3[nH]ncc3c2c2c1CCCC2 | 14.5 | 9.85 | 4.33 | 2.82 | 12.5 | 5.86 | 5.72 | 7.25 | 3.12 | 5.13 | 2 | 2.15 | 1.62 | 1.29 | 2.7 | 1 | 2.31 | 0.403 | 1.41 | 2.36 |
| COc1c2c(c(CC=C(C)C)c3oc(=O)c(-c4ccc(O)cc4)c(O)c13)OC(C)(C)C=C2 | > 100 | 71.3 | 73 | > 100 | 76.8 | 37.5 | 51 | 54.3 | > 100 | 70.2 | – | – | – | – | – | – | – | – | – | – |
| COc1cc(F)cc([C@@H](CO)NC(=O)[C@@H](C)N2Cc3ccc(-c4nc(NC5CCOCC5)ncc4Cl)cc3C2=O)c1 | > 76.8 | > 100 | 0.0318 | 11.8 | > 92.8 | > 54.9 | 0.859 | 49.6 | 20.2 | < 0.01 | 0.0624 | 9.23 | < 0.01 | < 0.0181 | 17.1 | 0.0173 | < 0.01 | 9.67 | < 0.0133 | < 0.01 |
| CC(=O)OC1CC[C@@]2(C)C(CC[C@]3(C)C2CC=C2[C@@H]4CC(C)(C)CCC4(C)CCC23C)[C@@]1(C)C(=O)O (some centres undefined) | 51.8 | 45.9 | 46.5 | 50.1 | > 87.9 | 46.9 | 83.5 | 40.1 | 43.9 | 47.1 | – | – | – | – | – | – | – | – | – | – |
| Clc1cccc(N2CCN(CCN3CCc4c([nH]c5ccccc45)C3c3cccnc3)CC2)c1 (centres undefined) | > 100 | > 73.5 | > 100 | > 93.1 | > 100 | > 91.3 | > 100 | > 100 | > 100 | > 100 | – | – | – | – | – | – | – | – | – | – |
| O=C(Nc1ccc2[nH]c(C(=O)N3CC(CCl)c4c3cc([N+](=O)[O-])c3ccccc43)cc2c1)c1cc2ccccc2o1 (centres undefined) | – | > 1100 | > 1100 | > 1100 | 377 | > 1100 | 380 | > 1100 | > 1100 | > 1100 | – | > 1100 | > 1100 | > 1100 | 66.4 | > 1100 | 33.2 | > 1100 | > 1100 | > 1100 |
| O=CC(Br)C(Br)c1ccccc1 (centres undefined) | 3.56 | 6.46 | 6.35 | 1.83 | 1.94 | 0.523 | 2.32 | 2.23 | 24.8 | – | 1.74 | 2.5 | 2.31 | 0.665 | 0.374 | 0.225 | 0.462 | 0.478 | 3.85 | – |
| CC1(C)CCC[C@]2(C)c3cc(O)ccc3CC[C@@H]12 | 33.7 | 79.7 | 37 | 33.7 | – | > 100 | 48.5 | 37.1 | 34.3 | – | 18.2 | 27.3 | 19.6 | 16.9 | – | 42.2 | 16 | 13.3 | 17.3 | – |
| c1cncc(-c2nc3ccccc3s2)c1 | > 100 | > 100 | > 100 | > 100 | – | > 100 | > 100 | > 100 | > 100 | > 100 | > 100 | > 100 | > 100 | > 100 | – | > 100 | > 100 | > 100 | > 100 | > 100 |
